The target in assay [1] is T1, human kappa opioid receptor (Homo sapiens, UniProt P41145).
T1 construct: expressed in transfected cells; host or cells: HEK293S KOR cells (membrane preparations)
Nature of the assay: Binding assay for opioid receptor transfected cell membrane in 96-well format (filtration), kappa opioid receptor. To be noted: HEK293S KOR cell membranes, radioligand 125I-(D-Pro10)-Dynorphin A (1-11), control inhibitor. An excerpt:
(§1) Compounds of the invention, prepared using the general methods described above, may be tested for their ability to bind to the human kappa opioid receptor using standard procedures well known to those skilled in the art.
Binding Assay for Opioid Receptor Transfected Cell Membrane in 96-Well Format
Principle: The procedures describe how to perform and interpret receptor binding experiments designed to determine the affinities of new compounds for μ, δ and κ receptors. The total and nonspecific binding are determined in the absence and presence of selective opioid receptor radiolabeled ligand.
Procedure for Kappa Opioid Receptor:
The total and non-specific binding are determined in absence and presence of 1 μM of Asimadoline and added with the multichannel pipett in respectively well of the 96 well plate (see table 1).
The radioligand 125I-(D-pro)-Dynorphin A (1-1 1) is added containing 30 000-50 000 CPM per well.
Membranes are thawed at room temperature and diluted in assay buffer to the appropriate amount of protein, homogenized 5-10 times in glas/glas, and added to the 96 well plate.
Vortex the plate 1 minute, incubate at room temperature for 60-75 minutes, vortex 1 minute and the reaction was terminated by rapid filtration (Micro96 Harvester, Skatron Instruments, Norway) to separate bound from free ligand. […]

Assay [2] has as its target T1, human kappa opioid receptor. Nature of the assay: SPA binding assay for kappa-opioid receptor transfected cell membrane in 96-well format. To be noted: HEK293S KOR cell membranes, radioligand 125I-(D-Pro10)-Dynorphin A (1-11), control inhibitor.
Excerpt: as §1
SPA Binding Assay for Kappa-Opioid Receptor Transfected Cell Membrane in 96-Well Format
Principle: Membranes containing the kappa opioid receptor are coupled to SPA beads, the ability of tested compounds to dislocate a radio ligand the protein agonist Dynorphin. (^125I-(D-Pro^10)-Dynorphin A (1-11)) are determined. Only radioaktivity in close proximity to the beads, that is bound to membranes attached to beads, will be measured.
Procedure: The total and non-specific binding are determined in absence and presence of 0.5 μM of Dynorphin, radioligand is added containing 15 000-20 000 CPM per well.
The membrane and SPA beads precouples over night (18-22 hours) in assay buffer at room temperature on a shaking platform, with rotary movement. The mixture of membrane and beads are pipetted together with the assay-buffer, agents and the radioligand into a 96-well microtiterplate.
The plate is incubated for 1 hours at room temperature, and counted in a WALLAC TRILUX MicroBeta.
Percentage inhibition is calculated for each well from the two standards, 0% and 100% inhibition.
The binding buffer, 50 mM Tris, 3 mM MgCl2, stored at +4° C. […]

Structures are written as SMILES.

T1 sequence (P41145 whole entry): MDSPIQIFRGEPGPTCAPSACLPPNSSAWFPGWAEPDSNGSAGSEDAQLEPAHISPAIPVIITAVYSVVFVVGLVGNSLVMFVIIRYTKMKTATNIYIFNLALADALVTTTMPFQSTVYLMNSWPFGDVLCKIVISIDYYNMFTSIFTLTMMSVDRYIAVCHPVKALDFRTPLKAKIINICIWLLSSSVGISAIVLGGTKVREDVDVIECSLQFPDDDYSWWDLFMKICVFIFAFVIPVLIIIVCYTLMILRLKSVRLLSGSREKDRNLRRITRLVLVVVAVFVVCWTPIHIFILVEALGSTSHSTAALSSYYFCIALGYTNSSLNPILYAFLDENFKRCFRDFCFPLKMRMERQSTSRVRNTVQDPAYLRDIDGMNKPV

For `CN(C(=O)C(c1ccccc1)c1ccccc1)[C@H](CN1CC[C@H](O)C1)c1ccccc1` [Asimadoline], the IC50 in assay [1] is 4 to 10 nM; in assay [2], approximately 4 nM.

As a reminder, the IC50 is the concentration at which inhibition is half-maximal. Read a high IC50 as lower potency.
